From ChEMBL document CHEMBL5579832, “Design, synthesis, and biological evaluation of pyrido[2,3-d]pyrimidin-7(8H)-one derivatives as potent USP1 inhibitors” (Eur J Med Chem, 2024)

Test system: Olaparib-resistant MDA-MB-436
Test: Inhibition of colony formation in human Olaparib-resistant MDA-MB-436 cell at 100 nM measured after 7 days in the presence of olaparib by SRB staining based assay relative to control
Format: functional
Settings: Olaparib-resistant MDA-MB-436, 168 h, time 7 day

COc1ncnc(C2CC2)c1-c1ncc2ccc(=O)n(Cc3ccc(-c4nc(C(F)(F)F)cn4C(C)C)cc3)c2n1
inhibition at 0.1 µM: 50%
